Experimental data: PubChem BioAssay AID328 (DTP/NCI, 2004)
Values joined by “and” are separate entries in the source; they are usually repeats but may differ in a detail not shown here. Equal values may be shown once. Toxic doses and inconclusive results are not listed.

System: BDF1 mice, P388 leukemia ip, median survival T/C
Assay: NCI In Vivo Anticancer Drug Screen. Data for tumor model P388 Leukemia (intraperitoneal) in B6D2F1 (BDF1) mice
Details: endpoint: median survival time, higher = longer survival
In short: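 Each value expresses how treatment altered survival: treated-mouse outcome over vehicle-mouse outcome, both groups bearing the transplanted tumour.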

[1] = dose: 6.0 mg/kg/injection, schedule: Q01DX009 (ip), vehicle: Klucel (hydroxypropylcellulose) (HPC)
[2] = dose: 100.0 mg/kg/injection, schedule: Q01DX005 (ip), vehicle: saline with Tween-80
[3] = dose: 200.0 mg/kg/injection, schedule: Q01DX009 (ip), vehicle: saline with Tween-80
[4] = dose: 25.0 mg/kg/injection, schedule: Q04DX003 (ip), vehicle: saline
[5] = dose: 6.25 mg/kg/injection, schedule: Q01DX009 (ip), vehicle: saline
[6] = dose: 12.5 mg/kg/injection, schedule: Q01DX009 (ip), vehicle: saline
[7] = dose: 50.0 mg/kg/injection, schedule: Q01DX009 (ip), vehicle: saline with Tween-80
[8] = dose: 100.0 mg/kg/injection, schedule: Q01DX009 (ip), vehicle: saline with Tween-80

## CN=C(N)c1ccc(NC(=O)c2ccc(C(=O)Nc3ccc(C(N)=NC)cc3)c(N)c2)cc1
dose: 2.0 mg/kg/injection, schedule: Q04DX003 (ip), vehicle: Klucel (hydroxypropylcellulose) (HPC)
  T/C: 107 % of control
dose: 2.6 mg/kg/injection, schedule: Q01DX009 (ip), vehicle: Klucel (hydroxypropylcellulose) (HPC)
  T/C: 190 % of control
dose: 3.0 mg/kg/injection, schedule: Q04DX003 (ip), vehicle: Klucel (hydroxypropylcellulose) (HPC)
  T/C: 115 % of control
dose: 4.0 mg/kg/injection, schedule: Q01DX009 (ip), vehicle: Klucel (hydroxypropylcellulose) (HPC)
  T/C: 263 % of control
[1]
  T/C: 272 % of control
dose: 6.25 mg/kg/injection, schedule: Q01DX009 (ip), vehicle: Klucel (hydroxypropylcellulose) (HPC)
  T/C: 150 % of control
dose: 8.0 mg/kg/injection, schedule: Q04DX003 (ip), vehicle: Klucel (hydroxypropylcellulose) (HPC)
  T/C: 150 % of control and 175 % of control
dose: 12.0 mg/kg/injection, schedule: Q04DX003 (ip), vehicle: Klucel (hydroxypropylcellulose) (HPC)
  T/C: 170 % of control and 190 % of control
dose: 12.5 mg/kg/injection, schedule: Q04DX003 (ip), vehicle: Klucel (hydroxypropylcellulose) (HPC)
  T/C: 169 % of control
dose: 18.0 mg/kg/injection, schedule: Q04DX003 (ip), vehicle: Klucel (hydroxypropylcellulose) (HPC)
  T/C: 150 % of control and 209 % of control

## CN(C)CCC(=O)c1ccc(Cl)cc1
dose: 18.8 mg/kg/injection, schedule: Q01DX009 (ip), vehicle: saline with Tween-80
  T/C: 96 % of control
dose: 37.5 mg/kg/injection, schedule: Q01DX009 (ip), vehicle: saline with Tween-80
  T/C: 93 % of control
dose: 75.0 mg/kg/injection, schedule: Q01DX009 (ip), vehicle: saline with Tween-80
  T/C: 113 % of control

## OC(c1cc(C(F)(F)F)nc2c(F)cccc12)C1CCCCN1 (centres undefined)
dose: 100.0 mg/kg/injection, schedule: Q01DX001 (ip), vehicle: saline with Tween-80
  T/C: 91 % of control
dose: 200.0 mg/kg/injection, schedule: Q01DX001 (ip), vehicle: saline with Tween-80
  T/C: 95 % of control
dose: 400.0 mg/kg/injection, schedule: Q01DX001 (ip), vehicle: saline with Tween-80
  T/C: 100 % of control

## CC1(C)O[C@]2(C)CC[C@@H]1[C@H](O)[C@@H]2N1CCCC1
dose: 50.0 mg/kg/injection, schedule: Q01DX005 (ip), vehicle: saline with Tween-80
  T/C: 111 % of control
[2]
  T/C: 104 % of control

## O=C(O)CN(CCN(CC(=O)O)CC(=O)O)CC(=O)O
dose: 25.0 mg/kg/injection, schedule: Q01DX010 (ip), vehicle: saline
  T/C: 100 % of control
dose: 50.0 mg/kg/injection, schedule: Q01DX010 (ip), vehicle: saline
  T/C: 91 % of control
dose: 200.0 mg/kg/injection, schedule: Q01DX010 (ip), vehicle: saline
  T/C: 95 % of control

## O=C(/C=C/c1cccc(Br)c1)NCC(O)CO (centres undefined)
[3]
  T/C: 95 % of control
dose: 400.0 mg/kg/injection, schedule: Q01DX009 (ip), vehicle: saline with Tween-80
  T/C: 87 % of control

## CC1(C)C2CCC([CH2][Hg][Cl])C1C2 (centres undefined)
dose: 1.5 mg/kg/injection, schedule: Q01DX009 (ip), vehicle: Klucel (hydroxypropylcellulose) (HPC)
  T/C: 90 % of control
dose: 3.0 mg/kg/injection, schedule: Q01DX009 (ip), vehicle: Klucel (hydroxypropylcellulose) (HPC)
  T/C: 100 % of control
[1]
  T/C: 90 % of control
dose: 12.0 mg/kg/injection, schedule: Q01DX009 (ip), vehicle: Klucel (hydroxypropylcellulose) (HPC)
  T/C: 104 % of control
dose: 25.0 mg/kg/injection, schedule: Q01DX009 (ip), vehicle: saline with Tween-80
  T/C: 115 % of control

## CCOC(=O)c1nc2nc(Cl)c(Cl)nc2[nH]1
dose: 4.0 mg/kg/injection, schedule: Q01DX009 (ip), vehicle: saline
  T/C: 90 % of control
[4]
  T/C: 93 % of control
dose: 32.0 mg/kg/injection, schedule: Q01DX009 (ip), vehicle: saline
  T/C: 89 % of control
dose: 50.0 mg/kg/injection, schedule: Q04DX003 (ip), vehicle: saline
  T/C: 98 % of control
dose: 100.0 mg/kg/injection, schedule: Q04DX003 (ip), vehicle: saline
  T/C: 102 % of control
dose: 200.0 mg/kg/injection, schedule: Q04DX003 (ip), vehicle: saline
  T/C: 93 % of control

## CCCCCCCCCCCCNC
dose: 12.5 mg/kg/injection, schedule: Q04DX003 (ip), vehicle: saline with Tween-80
  T/C: 104 % of control
dose: 25.0 mg/kg/injection, schedule: Q04DX003 (ip), vehicle: saline with Tween-80
  T/C: 109 % of control
dose: 50.0 mg/kg/injection, schedule: Q04DX003 (ip), vehicle: saline with Tween-80
  T/C: 100 % of control

## C[Se]c1ncnc2c(C3OC(CO)C(O)C3O)[nH]nc12 (centres undefined)
dose: 0.5 mg/kg/injection, schedule: Q01DX009 (ip), vehicle: saline with Tween-80
  T/C: 118 % of control
dose: 1.0 mg/kg/injection, schedule: Q01DX009 (ip), vehicle: saline with Tween-80
  T/C: 90 % of control
dose: 2.0 mg/kg/injection, schedule: Q01DX009 (ip), vehicle: saline with Tween-80
  T/C: 109 % of control
dose: 4.0 mg/kg/injection, schedule: Q01DX009 (ip), vehicle: saline with Tween-80
  T/C: 100 % of control
[5]
  T/C: 114 % of control
dose: 8.0 mg/kg/injection, schedule: Q01DX009 (ip), vehicle: saline with Tween-80
  T/C: 90 % of control
[6]
  T/C: 98 % of control
dose: 12.5 mg/kg/injection, schedule: Q04DX003 (ip), vehicle: saline
  T/C: 98 % of control
[4]
  T/C: 92 % of control

## Cc1ccc(C2(C(=O)O)CCCC2)cc1
dose: 65.0 mg/kg/injection, schedule: Q01DX009 (ip), vehicle: Klucel (hydroxypropylcellulose) (HPC)
  T/C: 103 % of control
dose: 150.0 mg/kg/injection, schedule: Q01DX009 (ip), vehicle: Klucel (hydroxypropylcellulose) (HPC)
  T/C: 94 % of control
[3]
  T/C: 91 % of control

## c1cc(OCC2CO2)ccc1OCC1CO1 (centres undefined)
dose: 78.0 mg/kg/injection, schedule: Q04DX003 (ip), vehicle: saline with Tween-80
  T/C: 119 % of control
dose: 177.0 mg/kg/injection, schedule: Q04DX003 (ip), vehicle: saline with Tween-80
  T/C: 153 % of control
dose: 600.0 mg/kg/injection, schedule: Q04DX003 (ip), vehicle: saline with Tween-80
  T/C: 122 % of control

## CSc1ccc(NC(=O)N(CCCl)N=O)cc1
[5]
  T/C: 100 % of control
dose: 6.25 mg/kg/injection, schedule: Q04DX003 (ip), vehicle: saline sonified
  T/C: 90 % of control
dose: 11.0 mg/kg/injection, schedule: Q04DX003 (ip), vehicle: saline sonified
  T/C: 100 % of control
[6]
  T/C: 100 % of control
dose: 12.5 mg/kg/injection, schedule: Q04DX003 (ip), vehicle: saline sonified
  T/C: 109 % of control
dose: 16.0 mg/kg/injection, schedule: Q04DX003 (ip), vehicle: saline sonified
  T/C: 122 % of control
dose: 25.0 mg/kg/injection, schedule: Q01DX009 (ip), vehicle: saline
  T/C: 116 % of control
dose: 37.5 mg/kg/injection, schedule: Q04DX003 (ip), vehicle: saline sonified
  T/C: 122 % of control

## CC1=C(O)C(=O)C(C2=C(O)C(=O)C(C)=C(O)C2=O)=C(O)C1=O
dose: 0.63 mg/kg/injection, schedule: Q01DX010 (ip), vehicle: saline
  T/C: 100 % of control
dose: 1.25 mg/kg/injection, schedule: Q01DX010 (ip), vehicle: saline
  T/C: 100 % of control
dose: 62.5 micrograms/kg/injection, schedule: Q01DX001 (ip), vehicle: saline
  T/C: 118 % of control
dose: 125.0 micrograms/kg/injection, schedule: Q01DX001 (ip), vehicle: saline
  T/C: 90 % of control
dose: 250.0 micrograms/kg/injection, schedule: Q01DX001 (ip), vehicle: saline
  T/C: 100 % of control
dose: 500.0 micrograms/kg/injection, schedule: Q01DX001 (ip), vehicle: saline
  T/C: 100 % of control
dose: 1000.0 micrograms/kg/injection, schedule: Q01DX001 (ip), vehicle: saline
  T/C: 100 % of control

## O=C(CN1CCCCC1)Nc1nc(-c2ccc(Cl)cc2)cs1
[2]
  T/C: 91 % of control

## CCCCCCC(=O)CC(SCC)c1ccccc1Cl (centres undefined)
[7]
  T/C: 93 % of control
[8]
  T/C: 107 % of control
[3]
  T/C: 121 % of control

## O=C(O)C1OC1C(=O)O (centres undefined)
dose: 75.0 mg/kg/injection, schedule: Q01DX009 (ip), vehicle: saline
  T/C: 90 % of control
dose: 150.0 mg/kg/injection, schedule: Q01DX009 (ip), vehicle: saline
  T/C: 100 % of control
dose: 300.0 mg/kg/injection, schedule: Q01DX009 (ip), vehicle: saline
  T/C: 100 % of control

## CC1(c2ccco2)C(=O)NC(=O)N1C(=O)CCl (centres undefined)
[7]
  T/C: 100 % of control
[8]
  T/C: 100 % of control
dose: 100.0 mg/kg/injection, schedule: Q04DX003 (ip), vehicle: saline with Tween-80
  T/C: 96 % of control
dose: 200.0 mg/kg/injection, schedule: Q04DX003 (ip), vehicle: saline with Tween-80
  T/C: 96 % of control

## CN(C=C(C#N)C#N)c1ccccc1
[7]
  T/C: 105 % of control
